According to patent publication US20230391736A1, “3-TETRAZOLYLMETHYL-1,3,5-TRIAZIN-2,4-DIONE COMPOUND INHIBITING CORONAVIRUS 3CL PROTEASE ACTIVITY AND PREPARATION METHOD AND USE THEREOF” (priority 2022, published 2023):
Read-outs that look alike come from different tables or passages of the source.

Tests used:
SARS-CoV-2 3CL^pro = SARS-CoV-2 3CL^pro (Severe acute respiratory syndrome coronavirus 2 (2019-nCoV) (SARS-CoV-2), UniProt P0DTD1); assay: biochemical; conditions: for IC50: FRET
A549 cells = assay: In-vitro cytotoxicity by the MTT method, A549 cells; conditions: 24 hrs
Protocol: (§1) The in-vitro cytotoxicity of Compounds 1, 12, and 17 was evaluated by the MTT method. HepG2, HEK293 and A549 cells in logarithmic growth phase were respectively trypsinized into a cell suspension. The cell density was adjusted to 5×10^4 cells/mL. 180 μL per well of the cell suspension was inoculated into a sterile 96-well plate at 37° C., and cultured in an incubator at 5% CO2 for 24 hrs. After the cells were attached to the bottom of the plate, 20 μL of the drug solutions over the concentration gradients were respectively added into each well, and 6 replicate wells were set in parallel. Also, a blank group (group without cells and drug) and a control group (group without drug) were set. The system was incubated in an incubator at 37° C. and 5% CO2 for 24 hrs, and then 20 μL per well of a 5 g/L MTT solution was added and incubated for another 4 hrs. After the incubation was completed, the culture medium in the well was gently aspirated, and 100 μL of DMSO was added to each well. Then the crystal was fully dissolved in a shaker for 10 min at a low speed. After that, the absorbency of each well was measured at OD490 nm in an enzymelinked immunodetector, and the survival rate of cells was calculated.

HEK293 cells = assay: In-vitro cytotoxicity by the MTT method, HEK293 cells; conditions: 24 hrs
Protocol: as §1

HepG2 cells = assay: In-vitro cytotoxicity by the MTT method, HepG2 cells; conditions: 24 hrs
Protocol: as §1

Cn1cc2cc(/N=c3\[nH]c(=O)n(Cc4nnn[nH]4)c(=O)n3Cc3ccc(F)cc3)c(Cl)cc2n1 [Compound 12]
IC50 (SARS-CoV-2 3CL^pro; class symbols, read-out: IC50 (nM), inhibitory activity against 3CL^pro): < 200 nM | IC50 (SARS-CoV-2 3CL^pro; non-linear regression, read-out: IC50 against 3CL^pro): 184 nM | inhibition at 0.0001 µM (SARS-CoV-2 3CL^pro; concentration 0.1 nM, read-out: inhibition percentage of 3CL^pro): 0.52% | inhibition at 0.001 µM (SARS-CoV-2 3CL^pro; concentration 1 nM, read-out: inhibition percentage of 3CL^pro): 1.86% | inhibition at 0.005 µM (SARS-CoV-2 3CL^pro; concentration 5 nM, read-out: inhibition percentage of 3CL^pro): 4.98% | inhibition at 0.01 µM (SARS-CoV-2 3CL^pro; concentration 10 nM, read-out: inhibition percentage of 3CL^pro): 7.28% | inhibition at 0.02 µM (SARS-CoV-2 3CL^pro; concentration 20 nM, read-out: inhibition percentage of 3CL^pro): 9.3% | inhibition at 0.03 µM (SARS-CoV-2 3CL^pro; concentration 30 nM, read-out: inhibition percentage of 3CL^pro): 12.3% | inhibition at 0.05 µM (SARS-CoV-2 3CL^pro; concentration 50 nM, read-out: inhibition percentage of 3CL^pro): 18.8% | inhibition at 0.1 µM (SARS-CoV-2 3CL^pro; concentration 100 nM, read-out: inhibition percentage of 3CL^pro): 40% | inhibition at 0.5 µM (SARS-CoV-2 3CL^pro; concentration 500 nM, read-out: inhibition percentage of 3CL^pro): 70.2% | inhibition at 1 µM (SARS-CoV-2 3CL^pro; concentration 1000 nM, read-out: inhibition percentage of 3CL^pro): 85.4% | Survival rate of A549 cells (A549 cells; 1.5625 nM): 98.43% | Survival rate of A549 cells (A549 cells; 3.125 nM): 96.76% | Survival rate of A549 cells (A549 cells; 6.25 nM): 96.86% | Survival rate of A549 cells (A549 cells; 12.5 nM): 96.42% | Survival rate of A549 cells (A549 cells; 25 nM): 95.19% | Survival rate of A549 cells (A549 cells; 50 nM): 93.96% | Survival rate of A549 cells (A549 cells; 100 nM): 93.51% | Survival rate of A549 cells (A549 cells; 200 nM): 92.13% | Survival rate of A549 cells (A549 cells; 400 nM): 89.12% | Survival rate of HEK293 cells (HEK293 cells; 1.5625 nM): 93.44% | Survival rate of HEK293 cells (HEK293 cells; 3.125 nM): 92.73% | Survival rate of HEK293 cells (HEK293 cells; 6.25 nM): 91.16% | Survival rate of HEK293 cells (HEK293 cells; 12.5 nM): 89.80% | Survival rate of HEK293 cells (HEK293 cells; 25 nM): 85.34% | Survival rate of HEK293 cells (HEK293 cells; 50 nM): 82.99% | Survival rate of HEK293 cells (HEK293 cells; 100 nM): 82.76% | Survival rate of HEK293 cells (HEK293 cells; 200 nM): 78.93% | Survival rate of HEK293 cells (HEK293 cells; 400 nM): 77.46% | Survival rate of HepG2 cells (HepG2 cells; 1.5625 nM): 96.16% | Survival rate of HepG2 cells (HepG2 cells; 3.125 nM): 94.78% | Survival rate of HepG2 cells (HepG2 cells; 6.25 nM): 93.92% | Survival rate of HepG2 cells (HepG2 cells; 12.5 nM): 91.45% | Survival rate of HepG2 cells (HepG2 cells; 25 nM): 88.16% | Survival rate of HepG2 cells (HepG2 cells; 50 nM): 87.52% | Survival rate of HepG2 cells (HepG2 cells; 100 nM): 83.43% | Survival rate of HepG2 cells (HepG2 cells; 200 nM): 82.56% | Survival rate of HepG2 cells (HepG2 cells; 400 nM): 77.32%
